Source: PMC8286831, “Identifying SARS-CoV-2 antiviral compounds by screening for small molecule inhibitors of nsp13 helicase” (Biochemical Journal, 2021)
“Also recorded” adds a separate entry of the source. Structures can show the parent of a compound that is named as a salt. Where two headings read alike, the source gives them in different places.

Assays:
[1] = target: SARS-CoV-2 nsp13 helicase (Severe acute respiratory syndrome coronavirus 2, UniProt P0DTD1); assay: biochemical; assay type: biochemical; details: for nsp13 inhibition and detergent sensitivity: presence or absence of non-ionic detergent
[2] = target: T1, SARS-CoV-2 RdRp holoenzyme (Severe acute respiratory syndrome coronavirus 2, UniProt P0DTD1); assay: FRET-based RdRp strand displacement assay; assay type: biochemical
T1 construct: (Sf nsp12-3F/7L8 preincubated with Sf 7H8 at a 1:3 ratio); 3F (3xFlag) (C); made in house; host or cells: 'Sf', read as Spodoptera frugiperda insect cells (my inference from the prefix); details are in Bertolin et al

[3] = RNA (RdRp substrate), 0.3 mM each NTP, 0.02% Tween-20 in RdRp assay buffer
[4] = read-out: IC50 + 0.02% Tween-20
[5] = RNA (nsp13 substrate), 0.3 mM ATP, 0.02% Tween-20 in RdRp assay buffer
[6] = IC50 0.02% Tween-20 + (presence)
[7] = IC50 0.02% Tween-20 − (absence)
[8] = RNA (nsp13 substrate), 0.3 mM ATP, 0.02% Tween-20 in RdRp assay buffer, read-out: IC50 nsp13
[9] = RNA (RdRp substrate), 0.3 mM each NTP, 0.02% Tween-20 in RdRp assay buffer, read-out: IC50 RdRp

NC(Cc1cc(O)c(O)cc1O)C(=O)O (racemic) [6-Hydroxy-DL-DOPA]
IC50 + 0.02% Tween-20 [1]: Quenching | IC50 No detergent [1]: Quenching

CN(C)CC[C@H](CSc1ccccc1)Nc1ccc(S(=O)(=O)NC(=O)c2ccc(N3CCC(C)(C)CC3)cc2)cc1[N+](=O)[O-] [A-385358]
IC50 RdRp [2, 3]: did not inhibit RdRp; also recorded: No inhibition | IC50 nsp13 [1]: No inhibition | IC50 [1, 4]: > 250 µM | IC50 ([1]; read-out: IC50 No detergent): 3.3 µM

CN(C)CC[C@H](CSc1ccccc1)Nc1ccc(S(=O)(=O)NC(=O)c2ccc(N3CCN(Cc4ccccc4-c4ccc(Cl)cc4)CC3)cc2)cc1[N+](=O)[O-] [ABT-737]
IC50 RdRp [2, 3]: No inhibition | IC50 ([1]; IC50 + 0.02% Tween-20): > 250 µM | IC50 ([1]; IC50 No detergent): 1.2 µM | IC50 nsp13 [1, 5]: No inhibition

CCN(CC)C(=O)c1ccc(C2=CC3(CCNCC3)Oc3cccc(O)c32)cc1 [ADL5859]
IC50 + 0.02% Tween-20 [1]: No inhibition | IC50 ([1]; IC50 No detergent): > 250 µM

Nc1ncnc2c1ncn2[C@@H]1O[C@H](COP(=O)(O)OP(=O)(O)OP(=O)(O)O)[C@@H](O)[C@H]1O [ATP]
Km ([1]; 2 nM FH-nsp13, 200 nM DNA substrate, read-out: Km for ATP with the DNA substrate): 110 µM | Km ([1]; 3 nM FH-nsp13, 200 nM RNA substrate, read-out: Km for ATP with the RNA substrate): 130 µM

COc1ccc(-c2ccc3cc(C(=O)O)ccc3c2)cc1C12CC3CC(CC(C3)C1)C2 [Adapalene]
IC50 [2]: 20 µM | IC50 [1, 6]: 5.5 µM | IC50 [1, 7]: 1.3 µM | IC50 ([1]; IC50 + 0.02% Tween-20): 9.9 µM | IC50 ([1]; IC50 No detergent): 3.7 µM | IC50 ([1]; IC50 nsp13): 11 µM

Cc1cc(O[C@@H](CCC(F)(F)F)c2ccc(C(=O)NCCC(=O)O)cc2)cc(C)c1-c1ccc(C(C)(C)C)cc1 [Adomeglivant]
IC50 [2]: 39 µM | IC50 ([1]; IC50 + 0.02% Tween-20): 103 µM | IC50 ([1]; IC50 No detergent): 5.3 µM | IC50 [1, 8]: > 100 µM

CC(C)c1cc(C(C)C)c(CC(=O)NS(=O)(=O)Oc2c(C(C)C)cccc2C(C)C)c(C(C)C)c1 [Avasimibe]
IC50 [2]: 18 µM | IC50 RdRp [2, 3]: also inhibited RdRp in a similar fashion | IC50 [1, 6]: 17 µM | IC50 [1, 7]: 1.3 µM | IC50 ([1]; IC50 + 0.02% Tween-20): 13 µM | IC50 ([1]; IC50 No detergent): 4 µM

O=C1/C(=C/c2ccc(O)c(Br)c2)CN(Cc2ccccc2)C/C1=C\c1ccc(O)c(Br)c1 [CARM1-IN-1]
IC50 [2, 9]: > 100 µM | IC50 [1, 8]: > 100 µM | IC50 [1, 4]: 126 µM | IC50 ([1]; read-out: IC50 No detergent): 4.2 µM

CO/N=C(\C(=O)N[C@@H]1C(=O)N2C(C(=O)O)=C(CSC(=O)c3ccco3)CS[C@H]12)c1csc(N)n1 [Ceftiofur HCl]
IC50 ([1]; IC50 + 0.02% Tween-20): > 250 µM | IC50 ([1]; IC50 No detergent): > 250 µM

CC(C)(C[C@H]1CN(S(=O)(=O)c2cccc(C(F)(F)F)c2)c2cc(-c3cc(F)cc(OC(F)F)c3)ccc2O1)C(=O)O [Cintirorgon]
IC50 [2, 9]: 36 µM | IC50 [1, 6]: 41 µM | IC50 [1, 7]: 2.1 µM | IC50 ([1]; IC50 + 0.02% Tween-20): 38 µM | IC50 ([1]; IC50 No detergent): 2.3 µM | IC50 [1, 8]: 97 µM

COc1cccc2c1C(=O)c1c(O)c3c(c(O)c1C2=O)C[C@@](O)(C(=O)CO)C[C@@H]3O[C@H]1C[C@H](N)[C@H](O)[C@H](C)O1 [Doxorubicin]
IC50 + 0.02% Tween-20 [1]: Artifact | IC50 No detergent [1]: Artifact

CC/C=C\C/C=C\C/C=C\C/C=C\C/C=C\CCCC(=O)O [Eicosapentaenoic acid]
IC50 [2, 9]: 29 µM | IC50 ([1]; IC50 + 0.02% Tween-20): 69 µM | IC50 ([1]; IC50 No detergent): 14 µM | IC50 [1, 8]: 81 µM

CCCCCCCC/C=C/CCCCCCCC(=O)O [Elaidic acid]
IC50 RdRp [2, 3]: No inhibition | IC50 ([1]; IC50 + 0.02% Tween-20): > 250 µM | IC50 ([1]; IC50 No detergent): 8.6 µM | IC50 nsp13 [1, 5]: No inhibition

COc1cc2c(cc1Cc1cccc(Cl)c1F)c(=O)c(C(=O)O)cn2[C@H](CO)C(C)C [Elvitegravir]
IC50 ([1]; IC50 + 0.02% Tween-20): > 250 µM | IC50 ([1]; IC50 No detergent): 22 µM | nsp13 inhibition and detergent sensitivity [1]: clear inhibition only in the absence of detergent

COC(=O)[C@@H]1CC2=CC(=O)CC[C@]2(C)[C@@]23O[C@@H]2C[C@@]2(C)[C@@H](CC[C@@]24CCC(=O)O4)[C@H]13 [Eplerenone]
IC50 + 0.02% Tween-20 [1]: No inhibition | IC50 ([1]; IC50 No detergent): > 250 µM

CC1=C(/C=C/C(C)=C/C=C/C(C)=C/C(=O)Nc2ccc(O)cc2)C(C)(C)CCC1 [Fenretinide]
IC50 RdRp [2, 3]: No inhibition | IC50 [1, 6]: > 250 µM | IC50 [1, 7]: 7.3 µM | IC50 ([1]; IC50 + 0.02% Tween-20): > 250 µM | IC50 ([1]; IC50 No detergent): 9.1 µM | IC50 nsp13 [1, 5]: No inhibition

CC1(C)O[C@@H]2C[C@H]3[C@@H]4C[C@H](F)C5=CC(=O)C=C[C@]5(C)[C@@]4(F)[C@@H](O)C[C@]3(C)[C@]2(C(=O)CO)O1 [Fluocinolone Acetonide]
IC50 + 0.02% Tween-20 [1]: No inhibition | IC50 ([1]; IC50 No detergent): > 250 µM

CC(C)(Sc1ccc(CCN(CCCCC2CCCCC2)C(=O)NC2CCCCC2)cc1)C(=O)O [GW7647]
IC50 [2, 9]: 32 µM | IC50 [1, 6]: 25 µM | IC50 [1, 7]: 2.3 µM | IC50 ([1]; IC50 + 0.02% Tween-20): 27 µM | IC50 ([1]; IC50 No detergent): 5.9 µM | IC50 [1, 8]: 39 µM

Cc1cc2c(C(C)C)c(O)c(O)c(C=O)c2c(O)c1-c1c(C)cc2c(C(C)C)c(O)c(O)c(C=O)c2c1O [Gossypol]
IC50 [2]: 17 µM | IC50 [1, 6]: 31 µM | IC50 [1, 7]: 1.3 µM | IC50 ([1]; IC50 + 0.02% Tween-20): 30 µM | IC50 ([1]; IC50 No detergent): 1.9 µM | IC50 [1, 8]: 26 µM

COc1c2c3c4c(c(OC)c(=O)c5c(O)cc(OC)c(c6c(OC)cc(O)c(c1=O)c63)c54)[C@@H](C(C)=O)[C@@](C)(O)C2 [Hypocrellin A]
IC50 ([1]; IC50 + 0.02% Tween-20): > 250 µM | IC50 ([1]; IC50 No detergent): 12 µM | nsp13 inhibition and detergent sensitivity [1]: clear inhibition only in the absence of detergent

COc1cc(C(=O)O)ccc1NC(=O)[C@@H]1N[C@@H](CC(C)(C)C)[C@](C#N)(c2ccc(Cl)cc2F)[C@H]1c1cccc(Cl)c1F [Idasanutlin]
IC50 [2, 9]: 36 µM | IC50 [1, 6]: 11 µM | IC50 [1, 7]: 2.3 µM | IC50 [1, 8]: 19 µM

Nc1nc2c(c(=O)[nH]1)N(C=O)C(CNc1ccc(C(=O)N[C@@H](CCC(=O)O)C(=O)O)cc1)CN2 (stereo partly shown) [Leucovorin Calcium]
IC50 RdRp [2, 3]: No inhibition | IC50 ([1]; IC50 + 0.02% Tween-20): > 250 µM | IC50 ([1]; IC50 No detergent): > 250 µM | IC50 nsp13 [1, 5]: No inhibition

CS(=O)(=O)c1cccc(C[C@H](NC(=O)c2c(Cl)cc3c(c2Cl)CCN(C(=O)c2ccc4ccoc4c2)C3)C(=O)O)c1 [Lifitegrast]
IC50 + 0.02% Tween-20 [1]: No inhibition | IC50 No detergent [1]: No inhibition

Cc1ccc(F)c(NC(=O)Nc2ccc(-c3cccc4[nH]nc(N)c34)cc2)c1 [Linifanib/ABT-869, Linifanib]
IC50 RdRp [2, 3]: No inhibition | IC50 ([1]; IC50 + 0.02% Tween-20): 230 µM | IC50 ([1]; IC50 No detergent): 26 µM | IC50 nsp13 [1, 5]: No inhibition

CCCCC/C=C\C/C=C\CCCCCCCC(=O)O [Linoleic acid]
IC50 RdRp [2, 3]: No inhibition | IC50 [1, 6]: 36 µM | IC50 [1, 7]: 4.3 µM | IC50 ([1]; IC50 + 0.02% Tween-20): 38 µM | IC50 ([1]; IC50 No detergent): 11 µM | IC50 nsp13 [1, 5]: No inhibition | nsp13 inhibition and detergent sensitivity [1]: strong sensitivity to detergents

O=C1c2c(O)ccc(O)c2C(=O)c2c(NCCNCCO)ccc(NCCNCCO)c21 [Mitoxantrone]
IC50 + 0.02% Tween-20 [1]: Quenching | IC50 No detergent [1]: Quenching

CCCc1c2oc(C(=O)O)cc(=O)c2cc2c(=O)cc(C(=O)O)n(CC)c12 [Nedocromil]
IC50 + 0.02% Tween-20 [1]: No inhibition | IC50 No detergent [1]: No inhibition

O=C(N[C@H]1CCS[C@H]2CCC[C@@H](C(=O)O)N2C1=O)[C@@H](S)Cc1ccccc1 [Omapatrilat]
IC50 + 0.02% Tween-20 [1]: No inhibition | IC50 ([1]; IC50 No detergent): > 250 µM

CN1Cc2sccc2C(c2ccc(O)c(O)c2)C1 (stereo not shown) [SKF 89145]
IC50 + 0.02% Tween-20 [1]: No inhibition | IC50 No detergent [1]: No inhibition

Cc1cc(OCCCS(C)(=O)=O)cc(C)c1-c1cccc(COc2ccc3c(c2)OC[C@H]3CC(=O)O)c1 [TAK875, Fasiglifam]
IC50 ([1]; IC50 + 0.02% Tween-20): 72 µM | IC50 ([1]; IC50 No detergent): 19 µM | nsp13 inhibition and detergent sensitivity [1]: clear inhibition only in the absence of detergent
